# Assay results as given in PubChem BioAssay AID1259407 (Chemical Carcinogenesis Research Information System (CCRIS), 2018).
# Active and inactive are the calls of the source. The rule behind the calls is not given here.
# System: CCRIS mutagenicity, Ames/micronucleus/aberration tests
# Assay: CCRIS mutagenicity studies
# [1] = Test System: AMES SALMONELLA TYPHIMURIUM, Strain/Indicator: TA100, Metabolic Activation: NONE, Method: PREINCUBATION
# [2] = Test System: AMES SALMONELLA TYPHIMURIUM, Strain/Indicator: TA1535, Metabolic Activation: NONE, Method: STANDARD PLATE
# [3] = Test System: AMES SALMONELLA TYPHIMURIUM, Strain/Indicator: TA98, Metabolic Activation: NONE, Method: STANDARD PLATE
# [4] = Test System: AMES SALMONELLA TYPHIMURIUM, Strain/Indicator: TA98, Metabolic Activation: RAT, LIVER, S-9, AROCLOR 1254, Method: STANDARD PLATE
# [5] = Test System: AMES SALMONELLA TYPHIMURIUM, Strain/Indicator: TA100, Metabolic Activation: NONE, Method: STANDARD PLATE
# [6] = Test System: AMES SALMONELLA TYPHIMURIUM, Strain/Indicator: TA102, Metabolic Activation: NONE, Method: PREINCUBATION
# [7] = Test System: AMES SALMONELLA TYPHIMURIUM, Strain/Indicator: TA97, Metabolic Activation: NONE, Method: PREINCUBATION
# [8] = Test System: AMES SALMONELLA TYPHIMURIUM, Strain/Indicator: TA97, Metabolic Activation: RAT, LIVER, S-9, AROCLOR 1254, Method: PREINCUBATION
# [9] = Test System: AMES SALMONELLA TYPHIMURIUM, Strain/Indicator: TA102, Metabolic Activation: RAT, LIVER, S-9, AROCLOR 1254, Method: PREINCUBATION
compound,measurement,setting,value
O[C@H]1C=Cc2cccc3c2[C@@]1(O)c1ccccc1-3,mutagenic call,"Test System: AMES SALMONELLA TYPHIMURIUM, Strain/Indicator: TM677, Metabolic Activation: NONE, Method: PREINCUBATION",inactive; negative
same,mutagenic call,"Test System: AMES SALMONELLA TYPHIMURIUM, Strain/Indicator: TM677, Metabolic Activation: RAT, LIVER, POSTMITOCHONDRIAL SUPERNATANT, AROCLOR 1254, Method: PREINCUBATION",inactive; negative
CCOC(=O)N(CCCC(=O)c1cccnc1)N=O,mutagenic call,[1],active; positive
O=C1NC2(CCCCC2)C(=O)N1CCN1CC1,mutagenic call,[2],active; positive
CNC(=O)Nc1ccccc1,mutagenic call,[3],inactive; negative
same,mutagenic call,[4],inactive; negative
same,mutagenic call,[5],inactive; negative
same,mutagenic call,"Test System: AMES SALMONELLA TYPHIMURIUM, Strain/Indicator: TA100, Metabolic Activation: RAT, LIVER, S-9, AROCLOR 1254, Method: STANDARD PLATE",inactive; negative
same,mutagenic call,[2],inactive; negative
same,mutagenic call,"Test System: AMES SALMONELLA TYPHIMURIUM, Strain/Indicator: TA1535, Metabolic Activation: RAT, LIVER, S-9, AROCLOR 1254, Method: STANDARD PLATE",inactive; negative
same,mutagenic call,"Test System: AMES SALMONELLA TYPHIMURIUM, Strain/Indicator: TA1537, Metabolic Activation: NONE, Method: STANDARD PLATE",inactive; negative
same,mutagenic call,"Test System: AMES SALMONELLA TYPHIMURIUM, Strain/Indicator: TA1537, Metabolic Activation: RAT, LIVER, S-9, AROCLOR 1254, Method: STANDARD PLATE",inactive; negative
same,mutagenic call,"Test System: AMES SALMONELLA TYPHIMURIUM, Strain/Indicator: TA1538, Metabolic Activation: NONE, Method: STANDARD PLATE",inactive; negative
same,mutagenic call,"Test System: AMES SALMONELLA TYPHIMURIUM, Strain/Indicator: TA1538, Metabolic Activation: RAT, LIVER, S-9, AROCLOR 1254, Method: STANDARD PLATE",inactive; negative
N[C@@H](CCC(=O)N[C@@H](CS)C(=O)NCC(=O)O)C(=O)O,mutagenic call,"Test System: AMES SALMONELLA TYPHIMURIUM, Strain/Indicator: TA92, Metabolic Activation: RAT, KIDNEY, S-9, Method: PREINCUBATION",active; positive
same,mutagenic call,"Test System: AMES SALMONELLA TYPHIMURIUM, Strain/Indicator: TA92, Metabolic Activation: RAT, KIDNEY, S-9, Method: STANDARD PLATE",active; positive
same,mutagenic call,"Test System: AMES SALMONELLA TYPHIMURIUM, Strain/Indicator: TA97, Metabolic Activation: RAT, KIDNEY, S-9, Method: PREINCUBATION",active; positive
same,mutagenic call,"Test System: AMES SALMONELLA TYPHIMURIUM, Strain/Indicator: TA97, Metabolic Activation: RAT, KIDNEY, S-9, Method: STANDARD PLATE",active; positive
same,mutagenic call,[1],inactive; negative
same,mutagenic call,"Test System: AMES SALMONELLA TYPHIMURIUM, Strain/Indicator: TA100, Metabolic Activation: RAT, KIDNEY, S-9, Method: PREINCUBATION",active; positive
same,mutagenic call,"Test System: AMES SALMONELLA TYPHIMURIUM, Strain/Indicator: TA100, Metabolic Activation: RAT, KIDNEY, S-9, Method: STANDARD PLATE",active; positive
same,mutagenic call,[6],inactive; negative
same,mutagenic call,"Test System: AMES SALMONELLA TYPHIMURIUM, Strain/Indicator: TA102, Metabolic Activation: NONE, Method: STANDARD PLATE",inactive; negative
same,mutagenic call,"Test System: AMES SALMONELLA TYPHIMURIUM, Strain/Indicator: TA102, Metabolic Activation: RAT, KIDNEY, S-9, Method: PREINCUBATION",active; positive
same,mutagenic call,"Test System: AMES SALMONELLA TYPHIMURIUM, Strain/Indicator: TA104, Metabolic Activation: RAT, KIDNEY, S-9, Method: PREINCUBATION",active; positive
same,mutagenic call,"Test System: AMES SALMONELLA TYPHIMURIUM, Strain/Indicator: TA104, Metabolic Activation: RAT, KIDNEY, S-9, Method: STANDARD PLATE",inactive; negative
same,mutagenic call,"Test System: AMES SALMONELLA TYPHIMURIUM, Strain/Indicator: TA1535, Metabolic Activation: RAT, KIDNEY, S-9, Method: PREINCUBATION",inactive; negative
same,mutagenic call,"Test System: AMES SALMONELLA TYPHIMURIUM, Strain/Indicator: TA1537, Metabolic Activation: RAT, KIDNEY, S-9, Method: PREINCUBATION",inactive; negative
same,mutagenic call,"Test System: Mouse lymphoma, Strain/Indicator: L5178Y (tk+/tk-), Metabolic Activation: None, Method: Suspension/plate",active; equivocal (previous evaluation positive)
same,mutagenic call,"Test System: Mouse lymphoma, Strain/Indicator: L5178Y (tk+/tk-), Metabolic Activation: Rat, Liver, S-9, Aroclor 1254, Method: Suspension/plate",inactive; negative
c1ccc2c(OCC3CO3)cccc2c1 (configuration not stated),mutagenic call,[5],active; positive
same,mutagenic call,"Test System: AMES SALMONELLA TYPHIMURIUM, Strain/Indicator: TA104, Metabolic Activation: NONE, Method: STANDARD PLATE",active; positive
same,mutagenic call,[2],active; positive
same,mutagenic call,"Test System: AMES SALMONELLA TYPHIMURIUM, Strain/Indicator: TA4001, Metabolic Activation: NONE, Method: STANDARD PLATE",active; positive
same,mutagenic call,"Test System: AMES SALMONELLA TYPHIMURIUM, Strain/Indicator: TA4006, Metabolic Activation: NONE, Method: STANDARD PLATE",active; positive
Cc1ccc(S(=O)(=O)OCc2ccc([N+](=O)[O-])cc2)cc1,mutagenic call,[5],active; positive
ClN1C2c3ccccc3-c3ccccc3C21 (configuration not stated),mutagenic call,[5],active; positive
same,mutagenic call,"Test System: CHINESE HAMSTER V-79, Strain/Indicator: V-79/6-THIOGUANINE, Metabolic Activation: NONE, Method: STANDARD PLATE",active; positive
Nc1ncnc2c1nc(Cl)n2[C@@H]1O[C@@H]2COP(=O)(O)O[C@H]2[C@H]1O,mutagenic call,"End Point: IN VIVO CHROMOSOMAL ABERRATIONS, Test System: BONE MARROW, Species: MOUSE, Strain/Sex: BALB/C, Route: IP",active; positive (structural and ploidy changes)
same,mutagenic call,"End Point: IN VIVO MICRONUCLEUS, Test System: BONE MARROW, Species: MOUSE, Strain/Sex: BALB/C, Route: IP",active; positive
same,mutagenic call,"Test System: MOUSE LYMPHOMA, Strain/Indicator: L5178Y (TK+/TK-), Metabolic Activation: NONE, Method: SUSPENSION/PLATE",inactive; negative. reevaluation of results: negative
same,mutagenic call,"Test System: MOUSE LYMPHOMA, Strain/Indicator: L5178Y (TK+/TK-), Metabolic Activation: RAT, LIVER, S-9, AROCLOR 1254, Method: SUSPENSION/PLATE",inactive; negative. reevaluation of results: negative
CC(=O)Nc1ccc(Oc2ccc(Cl)cc2)cc1,mutagenic call,[5],inactive; negative
same,mutagenic call,"Test System: AMES SALMONELLA TYPHIMURIUM, Strain/Indicator: TA100, Metabolic Activation: RAT, LIVER, S-9, KANECLOR 500, Method: STANDARD PLATE",active; positive
O=C(C(Cl)Cl)C(Cl)(Cl)Cl,mutagenic call,[3],active; positive
same,mutagenic call,[5],active; positive
CC1(C)C[C@H]2C=C(C=O)[C@@]3(C=O)C[C@@]3(C)[C@H]2C1,mutagenic call,"Test System: CHINESE HAMSTER V-79, Strain/Indicator: V-79/6-THIOGUANINE (HGPRT), Metabolic Activation: NONE",inactive; negative
Cc1c(N)cnc2c1nc1c(C)cccn12,mutagenic call,[3],inactive; negative
same,mutagenic call,"Test System: AMES SALMONELLA TYPHIMURIUM, Strain/Indicator: TA98, Metabolic Activation: RAT, LIVER, CYTOSOL, AROCLOR 1254, Method: STANDARD PLATE",active; positive
same,mutagenic call,"Test System: AMES SALMONELLA TYPHIMURIUM, Strain/Indicator: TA98, Metabolic Activation: RAT, LIVER, MICROSOMES, AROCLOR 1254, Method: STANDARD PLATE",active; positive
same,mutagenic call,[4],active; positive
O=c1[nH]sc2cc([N+](=O)[O-])ccc12,mutagenic call,[5],active; positive
C=CC(C)(O)CCC=C(C)C (configuration not stated),mutagenic call,[7],inactive; negative
same,mutagenic call,[8],inactive; negative
same,mutagenic call,[6],inactive; negative
same,mutagenic call,[9],inactive; negative
same,mutagenic call,"Test System: E. coli, Strain/Indicator: WP2 IC185 trpE65, Metabolic Activation: None, Method: Plate incorporation (Test material solvent: ethanol)",inactive; negative
same,mutagenic call,"Test System: E. coli, Strain/Indicator: WP2 IC202 trpE65 oxyR/pKM101, Metabolic Activation: None, Method: Plate incorporation (Test material solvent: ethanol)",inactive; negative
CC(=O)c1ccc2ccccc2c1,mutagenic call,[7],inactive; negative
same,mutagenic call,[8],inactive; negative
same,mutagenic call,[6],inactive; negative
same,mutagenic call,[9],inactive; negative
